In PubChem BioAssay (NCI):
Several values for one entry are separate records, joined by “and”; a condition that tells them apart may be missing. Equal values may be shown once.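 Results reflect a 48-hour exposure of cells in 96-well plates to compound at five concentrations. GI50 is the concentration that inhibits growth by half. The concentration for full growth arrest is given as TGI.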

Tests used:
Experiment in all cases: growth of human tumour cells (NCI), 48 h
K-562 leukemia = test system: K-562 leukemia
PC-3 prostate = test system: PC-3 prostate
DMS 114 small cell lung = test system: DMS 114 small cell lung
DLD-1 colon = test system: DLD-1 colon
LOX IMVI melanoma = test system: LOX IMVI melanoma
UACC-62 melanoma = test system: UACC-62 melanoma
KM12 colon = test system: KM12 colon
OVCAR-3 ovarian = test system: OVCAR-3 ovarian
KM20L2 colon = test system: KM20L2 colon
MOLT-4 leukemia = test system: MOLT-4 leukemia
MDA-N = test system: MDA-N
HOP-18 NSCLC = test system: HOP-18 NSCLC
MDA-MB-231 breast = test system: MDA-MB-231 breast
DU-145 prostate = test system: DU-145 prostate

Compound: O=C1/C(=C/c2ccc(Cl)c(Cl)c2)CN(C(=O)CCN2CCOCC2)C/C1=C\c1ccc(Cl)c(Cl)c1
- GI50 (K-562 leukemia): 259 nM and 315 nM
- TGI (K-562 leukemia): 585 nM and 2990 nM
- TGI (PC-3 prostate): 15.7 nM
- GI50 (DMS 114 small cell lung): 346 nM
- TGI (DMS 114 small cell lung): 2340 nM and 1330 nM
- GI50 (DLD-1 colon): 245 nM
- TGI (DLD-1 colon): 409 nM and 785 nM
- TGI (LOX IMVI melanoma): 1150 nM
- GI50 (UACC-62 melanoma): 1920 nM
- TGI (UACC-62 melanoma): 3.27 µM and 4.9 µM
- TGI (KM12 colon): 137 nM and 1270 nM and 326 nM
- GI50 (OVCAR-3 ovarian): 1080 nM
- GI50 (KM20L2 colon): 1820 nM
- TGI (KM20L2 colon): 2.79 µM and 4.01 µM
- GI50 (MOLT-4 leukemia): 196 nM
- TGI (MDA-N): 44.1 nM
- GI50 (HOP-18 NSCLC): 2110 nM
- TGI (HOP-18 NSCLC): 5.96 µM and 5.49 µM
- TGI (MDA-MB-231 breast): 5.91 nM
- TGI (DU-145 prostate): 148 nM
